Test results as given in patent publication US20220340983A1, “SYSTEMS AND ASSAYS FOR IDENTIFYING PU.1 INHIBITORS” (Massachustts Institute of Technology, priority 2019, published 2022).

Experiments:
[1] = test system: PU.1 dependent gene expression; test: RT-qPCR of mRNA levels in BV2 PU.1-Luciferase cells (validation round 3); assay type: cell-based, mouse; details: 2-day treatment
Description: The Asinex1 and ChemDiv6 libraries contain molecules with unknown biological properties, but with low toxicity, high stability, and a broad structural diversity used to generate structure-activity-relationships (SAR) of the PU.1 inhibitors. […] In order to obtain the SAR, three rounds of validation were performed. In round 1, false-positive, non-specific luciferase quencher molecules were excluded using the commercially available HEK293 CMV-Luciferase line that constitutively expresses luciferase under the CMV promoter. In round 2, weak (non-significant) hits were eliminated according to degree of PU.1 inhibition in the absence of cell death. In round 3, drugs were selected that reduce PU.1-dependent gene expression with RT-qPCR.

[2] = biological target: T1, PU.1 (Mus musculus, UniProt P17433); test: Luciferase assay (luminescence) in BV2 PU.1-Luciferase reporter cells; assay type: cell-based; details: luminescence reduction in BV2 PU.1-Luciferase cells, concentration-response, Hill's equation
T1 construct: endogenous in cells; host or cells: BV2 PU.1-Luciferase (mouse microglial BV2 with a 5xLBB-luciferase reporter integrated at ROSA26)
Text: PU.1 belongs to a group of transcription factors that all bind to the middle 5′-GGAA-3′ sequence. The flanking A/T rich sequence is crucial for conferring PU.1 selective binding. The flanking sequence requires unique structural properties of PU.1 and can therefore be targeted by drugs acting as allosteric inhibitors that prevent PU.1 from binding to the LBB. In order to achieve robust PU.1 binding, five tandem copies of the LBBs (5×LBB) were inserted into the luciferase promoter of the pGL4.23 plasmid. The region containing the five LBBs (5×LBB) was then subcloned into the pROSA26-1 plasmid (together with a PGKneo bpA plasmid for Neomycin/G418 resistance) that allows stable integration in chromosome 6 of the immortalized mouse microglial BV2 cell line (FIG. 2B). The stable cell line was created by selection with G418.
The BV2 PU.1-Luciferase cells (referred to as “cells” from here onward) were plated into a 384-well plate, using an automatic dispenser, 2000 cells per well in 30 μL of media composed of RPMI (Sigma-Aldrich), 10% FBS, 1% PenStrep (50 mg/mL) and 1% G418 (50 mg/mL) was plated. A robotic arm was used to transfer compounds in a 384-well format using a pin array into the plate containing the cells (here, 33 nL was transferred from a drug library containing 10 mM concentration of drugs for a final concentration of 10 μM per well). For reproducibility, each pin array with 384 compounds was added to 4 plates of cells. […] Subsequently, automatic of 30 μL of BrightGlo (Promega) was dispensed into 2 of the 4 plates, in order to lyse the cells and drive the luminescence reaction whereafter the luminescence intensity was measured by a plate reader (Perkin Elmer EnVision). The two other plates were fixed by automatically dispensing 30 μL of 10% formaldehyde with 2μL Hoechst per 1 mL formaldehyde which were left at room temperature for one hour, followed by plate reading (Acumen (TTPLabTech)). A compound transfer and treatment would be repeated if reproducibility between the luminescence plates and/or the fixed Hoechst plates was lacking. The drugs were selected and ranked according to the criteria described in FIG. 13. Luminescence values used were corrected for crosstalk. Hoechst values were total fluorescence area per well. Determination of a positive hit considered both the reduction of luminescence as well as a possible confounding reduction in cell viability. The formula used was y=(value−meanvalue)/stddev. […] Compounds were excluded if cell viability was reduced >2 standard deviations from the mean, using the same formula. The positive hits were then validated in multiple steps in order to identify true PU.1 inhibitors.
The degree of luminescence reduction of the hits was plotted with significant effective area under the curve in order to obtain an IC50.

## CCOc1ccc(S(=O)(=O)NCc2ccncc2)cc1C(C)C [Compound D09]
[1]
  mRNA levels Apoe: 0.390 multiples of 1×
  mRNA levels IL1β: 0.938 multiples of 1×
  mRNA levels Lucif.: 0.360 multiples of 1×
  mRNA levels Spi1: 0.781 multiples of 1×
  mRNA levels Trem2: 0.437 multiples of 1×
  mRNA levels Tyrobp: 0.496 multiples of 1×
[2]
  IC50: 38 nM

## CSc1ccc(C=Cc2nc3ccccc3n2S(=O)(=O)c2ccc(F)c(C)c2)cc1 [Compound 2G10]
[1]
  mRNA levels Apoe: 0.899 multiples of 1×
  mRNA levels IL1β: 0.786 multiples of 1×
  mRNA levels Lucif.: 0.531 multiples of 1×
  mRNA levels Spi1: 0.790 multiples of 1×
  mRNA levels Trem2: 0.993 multiples of 1×
  mRNA levels Tyrobp: 0.855 multiples of 1×
[2]
  IC50: 507 nM

## CCc1ccc(CNC(=O)C2CCCN(c3nn4cc(-c5ccc(F)cc5)nc4s3)C2)cc1 (stereo not drawn) [Compound 2C2]
[1]
  mRNA levels Apoe: 1.035 multiples of 1×
  mRNA levels IL1β: 0.954 multiples of 1×
  mRNA levels Lucif.: 0.504 multiples of 1×
  mRNA levels Spi1: 1.034 multiples of 1×
  mRNA levels Trem2: 1.031 multiples of 1×
  mRNA levels Tyrobp: 1.130 multiples of 1×
[2]
  IC50: 876 nM

## Cc1ccc(-c2c(C)n3c4c(=O)n(C)c(=O)n(C)c4nc3n2CCO)cc1 [Compound 2H5]
[1]
  mRNA levels Apoe: 1.756 multiples of 1×
  mRNA levels IL1β: 0.185 multiples of 1×
  mRNA levels Lucif.: 0.165 multiples of 1×
  mRNA levels Spi1: 1.316 multiples of 1×
  mRNA levels Trem2: 2.628 multiples of 1×
  mRNA levels Tyrobp: 2.422 multiples of 1×
[2]
  IC50: 155 nM

## CCc1ccc(NC(=O)Cn2c(=O)oc3cc(S(=O)(=O)N4CCCCCC4)ccc32)cc1 [Compound 2A7]
[1]
  mRNA levels Apoe: 0.886 multiples of 1×
  mRNA levels IL1β: 0.435 multiples of 1×
  mRNA levels Lucif.: 0.328 multiples of 1×
  mRNA levels Spi1: 0.739 multiples of 1×
  mRNA levels Trem2: 0.942 multiples of 1×
  mRNA levels Tyrobp: 0.928 multiples of 1×
[2]
  IC50: 3620 nM

## CC(=O)c1c(C)oc2ccc(N(C(=O)Oc3ccccc3)S(=O)(=O)c3ccc(C(C)(C)C)cc3)cc12 [Compound 1A2]
[1]
  mRNA levels Apoe: 0.858 multiples of 1×
  mRNA levels IL1β: 1.054 multiples of 1×
  mRNA levels Lucif.: 0.324 multiples of 1×
  mRNA levels Spi1: 0.915 multiples of 1×
  mRNA levels Trem2: 1.073 multiples of 1×
  mRNA levels Tyrobp: 1.093 multiples of 1×
[2]
  IC50: 2280 nM

## N#CC(=CNc1ccc2c(c1)OCCO2)c1nc2ccccc2[nH]1 [Compound A09]
[1]
  mRNA levels Apoe: 0.941 multiples of 1×
  mRNA levels IL1β: 0.644 multiples of 1×
  mRNA levels Lucif.: 0.513 multiples of 1×
  mRNA levels Spi1: 0.931 multiples of 1×
  mRNA levels Trem2: 0.879 multiples of 1×
  mRNA levels Tyrobp: 0.821 multiples of 1×
[2]
  IC50: 1480 nM

## COc1ccc(NS(=O)(=O)c2ccc3c(c2)CCCN3C(=O)C2CCC2)cc1OC [Compound 2F7]
[1]
  mRNA levels Apoe: 1.146 multiples of 1×
  mRNA levels IL1β: 0.460 multiples of 1×
  mRNA levels Lucif.: 0.216 multiples of 1×
  mRNA levels Spi1: 0.936 multiples of 1×
  mRNA levels Trem2: 1.442 multiples of 1×
  mRNA levels Tyrobp: 1.498 multiples of 1×
[2]
  IC50: 1420 nM

## CCCCN(c1ccccc1)c1ncnc2c1cnn2-c1ccc(Cl)cc1 [Compound 2G8]
[1]
  mRNA levels Apoe: 1.119 multiples of 1×
  mRNA levels IL1β: 1.362 multiples of 1×
  mRNA levels Lucif.: 0.497 multiples of 1×
  mRNA levels Spi1: 1.179 multiples of 1×
  mRNA levels Trem2: 1.237 multiples of 1×
  mRNA levels Tyrobp: 1.469 multiples of 1×
[2]
  IC50: 967 nM

## CCOC(=O)c1ccc(NS(=O)(=O)c2cc(Br)cc3c2N(C(C)=O)C(C)C3)cc1 (stereo not drawn) [Compound 1D3]
[1]
  mRNA levels Apoe: 0.928 multiples of 1×
  mRNA levels IL1β: 1.144 multiples of 1×
  mRNA levels Lucif.: 0.347 multiples of 1×
  mRNA levels Spi1: 0.965 multiples of 1×
  mRNA levels Trem2: 1.031 multiples of 1×
  mRNA levels Tyrobp: 1.102 multiples of 1×
[2]
  IC50: 1740 nM

## CCOc1ccc(-c2nc(CSCC(=O)NCc3ccc(Cl)cc3)c(C)o2)cc1 [Compound 2H3]
[1]
  mRNA levels Apoe: 1.111 multiples of 1×
  mRNA levels IL1β: 0.915 multiples of 1×
  mRNA levels Lucif.: 0.722 multiples of 1×
  mRNA levels Spi1: 0.897 multiples of 1×
  mRNA levels Trem2: 0.986 multiples of 1×
  mRNA levels Tyrobp: 1.003 multiples of 1×
[2]
  IC50: 734 nM

## Cc1ccc(C)c(N2CCN(C(=O)C3CCN(c4nc(-c5ccc(C(C)C)cc5)no4)CC3)CC2)c1 [Compound 2E10]
[1]
  mRNA levels Apoe: 1.244 multiples of 1×
  mRNA levels IL1β: 1.082 multiples of 1×
  mRNA levels Lucif.: 0.611 multiples of 1×
  mRNA levels Spi1: 1.133 multiples of 1×
  mRNA levels Trem2: 1.253 multiples of 1×
  mRNA levels Tyrobp: 1.158 multiples of 1×
[2]
  IC50: 1340 nM

## CC(C)c1ccc(C2Sc3ccccc3NC3=C2C(=O)c2ccccc23)cc1 (stereo not drawn) [Compound 1B5]
[1]
  mRNA levels Apoe: 0.797 multiples of 1×
  mRNA levels IL1β: 0.843 multiples of 1×
  mRNA levels Lucif.: 0.491 multiples of 1×
  mRNA levels Spi1: 0.831 multiples of 1×
  mRNA levels Trem2: 0.775 multiples of 1×
  mRNA levels Tyrobp: 0.697 multiples of 1×
[2]
  IC50: 2310 nM

## Cn1nccc1C(=O)NCc1ccc2c(c1)CCN2C(=O)c1ccc(F)cc1 [Compound 2G2]
[1]
  mRNA levels Apoe: 0.957 multiples of 1×
  mRNA levels IL1β: 0.887 multiples of 1×
  mRNA levels Lucif.: 0.294 multiples of 1×
  mRNA levels Spi1: 0.958 multiples of 1×
  mRNA levels Trem2: 1.071 multiples of 1×
  mRNA levels Tyrobp: 0.963 multiples of 1×
[2]
  IC50: 4800 nM

## CC(=NCCCn1ccnc1)c1c(C(F)(F)F)[nH]n(-c2nc3ccccc3s2)c1=O [Compound E01]
[1]
  mRNA levels Apoe: 0.823 multiples of 1×
  mRNA levels IL1β: 0.986 multiples of 1×
  mRNA levels Lucif.: 0.416 multiples of 1×
  mRNA levels Spi1: 0.912 multiples of 1×
  mRNA levels Trem2: 0.903 multiples of 1×
  mRNA levels Tyrobp: 0.988 multiples of 1×
[2]
  IC50: 663 nM
